Results: the supplement of paper PMC10307832

What was measured:
Experiment in all cases: relative viability (nuclei count vs DMSO), 5 days (fraction); higher = more cells survive
NCI-H1793 = test system: NCI-H1793
Method in brief: (§1)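 For relative viability, nuclei counts in treated wells were divided by those in vehicle wells. Lung cancer cell lines had been pin-tool dosed in 1536-well plates the day after seeding and cultured for 5 days, then fixed and stained in one step (final 0.05% Triton X-100, 1% formaldehyde, 1 ug/ml Hoechst) and imaged at 4×. Doses were one drug alone or a fixed anchor-drug dose plus five library-drug doses (not always all listed) in √10 steps, and values are duplicate-plate medians.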

EPLC-272H = test system: EPLC-272H
Method in brief: as §1

ABC-1 = test system: ABC-1
Method in brief: as §1

LCLC-103H = test system: LCLC-103H
Method in brief: as §1

NCI-H3122 = test system: NCI-H3122
Method in brief: as §1

ChaGo-K-1 = test system: ChaGo-K-1
Method in brief: as §1

NCI-H2085 = test system: NCI-H2085
Method in brief: as §1

HCC-15 = test system: HCC-15
Method in brief: as §1

COR-L23 = test system: COR-L23
Method in brief: as §1

NCI-H2228 = test system: NCI-H2228
Method in brief: as §1

HCC-827 = test system: HCC-827
Method in brief: as §1

Cc1csc(=NC2CCCCC2)n1/N=C/c1ccc(O)c(O)c1O [MIM1] + CC(=O)c1c(C)c2cnc(Nc3ccc(N4CCNCC4)cn3)nc2n(C2CCCC2)c1=O [Palbociclib] (partner 0.5 µM) gave a relative viability (NCI-H1793; first compound 0.2 µM) of 0.317, a relative viability (NCI-H1793; first compound 2 µM) of 0.353 and a relative viability (NCI-H1793; first compound 6.325 µM) of 0.29. For the same compound, the relative viability (NCI-H1793; first compound 20 µM) was 0.293, the relative viability (EPLC-272H; first compound 0.2 µM) was 0.328 and the relative viability (EPLC-272H; first compound 0.6325 µM) was 0.332. For the same compound, the relative viability (EPLC-272H; first compound 2 µM) was 0.302, the relative viability (EPLC-272H; first compound 6.325 µM) was 0.279 and the relative viability (EPLC-272H; first compound 20 µM) was 0.149. The relative viability (ABC-1; first compound 0.2 µM) was 0.603, the relative viability (ABC-1; first compound 0.6325 µM) was 0.988 and the relative viability (ABC-1; first compound 2 µM) was 0.544. It also gave a relative viability (ABC-1; first compound 6.325 µM) of 0.406, a relative viability (ABC-1; first compound 20 µM) of 0.473 and a relative viability (LCLC-103H; first compound 0.2 µM) of 0.465. For the same compound, the relative viability (LCLC-103H; first compound 0.6325 µM) was 0.528, the relative viability (LCLC-103H; first compound 2 µM) was 0.477 and the relative viability (LCLC-103H; first compound 6.325 µM) was 0.482. The relative viability (LCLC-103H; first compound 20 µM) was 0.389, the relative viability (NCI-H3122; first compound 0.2 µM) was 0.186 and the relative viability (NCI-H3122; first compound 0.6325 µM) was 0.195. It also gave a relative viability (NCI-H3122; first compound 2 µM) of 0.174, a relative viability (NCI-H3122; first compound 6.325 µM) of 0.187 and a relative viability (NCI-H3122; first compound 20 µM) of 0.124. For the same compound, the relative viability (ChaGo-K-1; first compound 0.2 µM) was 0.951, the relative viability (ChaGo-K-1; first compound 0.6325 µM) was 0.926 and the relative viability (ChaGo-K-1; first compound 2 µM) was 0.961. For the same compound, the relative viability (ChaGo-K-1; first compound 6.325 µM) was 0.7, the relative viability (ChaGo-K-1; first compound 20 µM) was 0.163 and the relative viability (NCI-H2085; first compound 0.2 µM) was 0.476. It also gave a relative viability (NCI-H2085; first compound 0.6325 µM) of 0.466, a relative viability (NCI-H2085; first compound 2 µM) of 0.461 and a relative viability (NCI-H2085; first compound 6.325 µM) of 0.482. It also gave a relative viability (NCI-H2085; first compound 20 µM) of 0.537, a relative viability (HCC-15; first compound 0.2 µM) of 0.763 and a relative viability (HCC-15; first compound 0.6325 µM) of 0.709. For the same compound, the relative viability (HCC-15; first compound 2 µM) was 0.763, the relative viability (HCC-15; first compound 6.325 µM) was 0.433 and the relative viability (HCC-15; first compound 20 µM) was 0.121. It also gave a relative viability (COR-L23; first compound 0.2 µM) of 0.301, a relative viability (COR-L23; first compound 0.6325 µM) of 0.328 and a relative viability (COR-L23; first compound 2 µM) of 0.258. It also gave a relative viability (COR-L23; first compound 6.325 µM) of 0.18, a relative viability (COR-L23; first compound 20 µM) of 0.138 and a relative viability (NCI-H2228; first compound 0.2 µM) of 0.835. It also gave a relative viability (NCI-H2228; first compound 0.6325 µM) of 0.646, a relative viability (NCI-H2228; first compound 2 µM) of 0.899 and a relative viability (NCI-H2228; first compound 6.325 µM) of 0.177. For the same compound, the relative viability (NCI-H2228; first compound 20 µM) was 0.133, the relative viability (HCC-827; first compound 0.2 µM) was 0.443 and the relative viability (HCC-827; first compound 0.6325 µM) was 0.511. The relative viability (HCC-827; first compound 2 µM) was 0.454, the relative viability (HCC-827; first compound 6.325 µM) was 0.307 and the relative viability (HCC-827; first compound 20 µM) was 0.227.
